In patent US10828317B2, “Method of treating bacterial infections” (priority 2016, dated 2020):

Tests used:
[1] = tested on: K. pneumoniae EN011; type: cell-based, Klebsiella pneumoniae; conditions: combination FdUrd+trimethoprim+uridine, Table 8
[2] = tested on: K. pneumoniae EN010; assay: MIC, WT; type: cell-based, Klebsiella pneumoniae; conditions: combination FdUrd+trimethoprim+uridine, Table 8
[3] = tested on: A. baumannii EN017; type: cell-based, Acinetobacter baumannii; conditions: combination FdUrd+trimethoprim+uridine, Table 8
[4] = tested on: E. coli EN013; type: cell-based, Escherichia coli; conditions: combination FdUrd+trimethoprim+uridine, Table 8
[5] = tested on: P. aeruginosa EN004; assay: MIC, WT (EN004 = EN0004); type: cell-based, Pseudomonas aeruginosa; conditions: combination FdUrd+trimethoprim+uridine
[6] = tested on: S. aureus no. 12; assay: MIC vs S. aureus LMG 10147, MSSA; type: cell-based, Staphylococcus aureus; conditions: Uridine 0 μg/ml
[7] = tested on: K. pneumoniae EN0143; assay: MIC, ESBL (SHV-12); type: cell-based; conditions: combination FdUrd+trimethoprim+uridine, Table 19
[8] = tested on: S. aureus no. 11; assay: MIC; type: cell-based
[9] = tested on: E. coli strain no 2; assay: MIC vs E. coli LMG 15862, penicillin resistant; conditions: Table 26B
[10] = tested on: P. aeruginosa EN0422; assay: MIC; type: cell-based, Pseudomonas aeruginosa; conditions: combination FdUrd+trimethoprim+uridine, Table 8
[11] = tested on: K. pneumoniae EN0437; assay: MIC, colistinR; type: cell-based; conditions: combination FdUrd+trimethoprim+uridine, Table 19
[12] = tested on: Helicobacter pylori ATTC43504; assay: MIC; type: cell-based; conditions: combination FdUrd+trimethoprim+uridine, Table 22A
Excerpt: (§1) Inhibition of Heliobacter is important in view of increasing resistance and its association to gastric cancer.

[13] = tested on: Helicobacter pylori APV00918; assay: MIC; type: cell-based; conditions: combination FdUrd+trimethoprim+uridine, Table 22A
Excerpt: as §1

[14] = tested on: K. pneumoniae EN0436; assay: MIC, colistinR; type: cell-based; conditions: combination FdUrd+trimethoprim+uridine, Table 19
[15] = tested on: S. aureus strain no 13; assay: MIC vs S. aureus LMG 15975, MRSA; conditions: Uridine 0 μg/ml
[16] = tested on: K. pneumoniae EN0262; assay: MIC, ESBL (+), KPC+; type: cell-based; conditions: combination FdUrd+trimethoprim+uridine, Table 19 and 21
[17] = tested on: S. aureus V86; assay: MIC; type: cell-based; conditions: Uridine 0 μg/ml
[18] = tested on: S. flexneri APV00906; assay: microbe, parasite or virus in culture; type: cell-based; conditions: combination FdUrd+trimethoprim+uridine, Table 22A
Excerpt: as §1

[19] = tested on: E. coli EN0135; assay: MIC, ESBL (SHV-2a); type: cell-based; conditions: combination FdUrd+trimethoprim+uridine, Table 19
[20] = tested on: P. aeruginosa EN015; type: cell-based, Pseudomonas aeruginosa; conditions: combination FdUrd+trimethoprim+uridine, Table 8
[21] = tested on: K. pneumoniae EN0233; assay: MIC; type: cell-based; conditions: combination FdUrd+trimethoprim+uridine, Table 19
[22] = tested on: P. aeruginosa EN005; conditions: combination FdUrd+trimethoprim+uridine, Table 8
[23] = tested on: E. coli EN0138; assay: MIC, ESBL (CTX-M-9); type: cell-based; conditions: combination FdUrd+trimethoprim+uridine, Table 19
[24] = tested on: S. aureus V308; assay: MIC; type: cell-based
[25] = tested on: K. pneumoniae EN0401; assay: MIC, Carbapenemase + ESBL; type: cell-based; conditions: combination FdUrd+trimethoprim+uridine, Table 19
[26] = tested on: E. coli EN0139; assay: MIC, ESBL (CTX-M-15); type: cell-based; conditions: combination FdUrd+trimethoprim+uridine, Table 19
[27] = Iclaprim 0.008 μg/ml, Uridine 0 μg/ml
[28] = Iclaprim 0.008 μg/ml, Uridine 100 μg/ml
[29] = Iclaprim 0.03 μg/ml, Uridine 0 μg/ml
[30] = Iclaprim […], Uridine 100 μg/ml

Compound: O=c1[nH]c(=O)n([C@H]2C[C@H](O)[C@@H](CO)O2)cc1F [FdUrd, Fluorodeoxyuridine]
- MIC [1]: 0.064 mg/L
- MIC [2]: 0.5 mg/L
- MIC [3]: 0.5 mg/L
- MIC [4]: 0.016 mg/L
- MIC ([5]; Table 8): >4 mg/L
- MIC ([5]; Table 19): >4 mg/L
- MIC FdUrd ([6]; Iclaprim 0.008 μg/ml): >4 mg/L
- MIC FdUrd ([6]; Iclaprim 0.03 μg/ml): >4 mg/L
- MIC FdUrd ([6]; Iclaprim […]): >4 mg/L
- MIC [7]: >4 mg/L
- MIC FdUrd [8, 27]: >4 mg/L
- MIC FdUrd [8, 28]: >4 mg/L
- MIC FdUrd [8, 29]: >4 mg/L
- MIC FdUrd ([8]; Iclaprim 0.03 μg/ml, Uridine 100 μg/ml): >4 mg/L
- MIC FdUrd ([8]; Iclaprim […], Uridine 0 μg/ml): >4 mg/L
- MIC FdUrd [8, 30]: >4 mg/L
- MIC FdUrd ([9]; Iclaprim 0, Uridine 0 μg/ml): >16 mg/L
- MIC FdUrd ([9]; Iclaprim 0, Uridine 100 μg/ml): >16 mg/L
- MIC FdUrd ([9]; Iclaprim 0, Uridine 300 μg/ml): >16 mg/L
- MIC FdUrd ([9]; Iclaprim 0, Uridine 500 μg/ml): >16 mg/L
- MIC FdUrd ([9]; Iclaprim 0.1, Uridine 0 μg/ml): >8 mg/L
- MIC FdUrd ([9]; Iclaprim 0.1, Uridine 100 μg/ml): >8 mg/L
- MIC FdUrd ([9]; Iclaprim 0.2, Uridine 0 μg/ml): >8 mg/L
- MIC [10]: >4 mg/L
- MIC [11]: >4 mg/L
- MIC [12]: 0.06 mg/L
- MIC [13]: 0.06 mg/L
- MIC [14]: 0.25 mg/L
- MIC FdUrd ([15]; Table 26A (isolate not given), Iclaprim 0.015): >0.5 mg/L
- MIC FdUrd ([15]; Table 26A (isolate not given), Iclaprim 0.03): >0.5 mg/L
- MIC FdUrd ([15]; Table 26A (isolate not given), Iclaprim 0.08): >0.5 mg/L
- MIC FdUrd ([15]; Table 30C, Iclaprim 0.008 μg/ml): >4 mg/L
- MIC FdUrd ([15]; Table 30C, Iclaprim 0.03 μg/ml): >4 mg/L
- MIC FdUrd ([15]; Table 30C, Iclaprim […]): >4 mg/L
- MIC [16]: 2 mg/L
- MIC FdUrd ([17]; Iclaprim 0.008 μg/ml): >4 mg/L
- MIC FdUrd ([17]; Iclaprim 0.03 μg/ml): >4 mg/L
- MIC FdUrd ([17]; Iclaprim 0.06 μg/ml): >4 mg/L
- MIC FdUrd ([17]; Iclaprim […]): >4 mg/L
- MIC [18]: >4 mg/L
- MIC [19]: 0.25 mg/L
- MIC [20]: 1 mg/L
- MIC [21]: 0.5 mg/L
- MIC [22]: 0.25 mg/L
- MIC [23]: 0.25 mg/L
- MIC FdUrd ([24]; Iclaprim 0 μg/ml, Uridine 0 μg/ml): >16 mg/L
- MIC FdUrd ([24]; Iclaprim 0 μg/ml, Uridine 100 μg/ml): >16 mg/L
- MIC FdUrd [24, 27]: >4 mg/L
- MIC FdUrd [24, 28]: >4 mg/L
- MIC FdUrd [24, 29]: >4 mg/L
- MIC FdUrd ([24]; Iclaprim 0.06 μg/ml, Uridine 0 μg/ml): >4 mg/L
- MIC FdUrd ([24]; Iclaprim […], Uridine 0 μg/ml): >4 mg/L
- MIC FdUrd [24, 30]: >4 mg/L
- MIC [25]: >4 mg/L
- MIC [26]: 0.5 mg/L
